Data published in paper PMC8963254, “Effects of Lysine N-ζ-Methylation in Ultrashort Tetrabasic Lipopeptides (UTBLPs) on the Potentiation of Rifampicin, Novobiocin, and Niclosamide in Gram-Negative Bacteria” (Antibiotics, 2022).
In brackets after ≈: the same amount, converted by molar mass. Like-named read-outs stand apart in the source and are kept apart here. Non-standard residues stand in square brackets, D forms with d. Residues, ends and D or L forms follow the SMILES beside them. *: point of attachment. Lys(Me) = CNCCCC[C@H](N)C(=O)O; Octanoyl = CCCCCCCC(=O)*

Columns and labels:
[1] = test system: P. aeruginosa PAO1; format: cell-based, Pseudomonas aeruginosa; conditions: PAO1, 18 h
Procedure: (§1) The in vitro antibacterial activity of the UTBLPs was assessed against wild-type and clinically isolated bacterial strains. To obtain the MIC of the compounds, the microbroth dilution susceptibility assay was performed according to the Clinical and Laboratory Standards Institute (CLSI, Wayne, PA, USA) guidelines and as previously described. Briefly, the compounds at varying concentrations were incubated with bacterial inoculum (5 × 10^5 CFU/mL final concentration) at 37 °C for 18 h. Growth in the form of turbidity was confirmed using an EMax Plus microplate reader (Molecular Devices, San Jose, CA, USA) at 590 nm.

[2] = test system: A. baumannii ATCC 17978; format: cell-based, Acinetobacter baumannii; conditions: ATCC 17978, 18 h
Procedure: as §1

[3] = test system: E. coli ATCC 25922; format: cell-based, Escherichia coli; conditions: ATCC 25922, 18 h
Procedure: as §1

[4] = test system: MRSA ATCC 33592; format: cell-based, Staphylococcus aureus; conditions: ATCC 33592, 18 h
Procedure: as §1

[5] = test system: S. aureus ATCC 29213; format: cell-based, Staphylococcus aureus; conditions: ATCC 29213, 18 h
Procedure: as §1

[6] = test system: E. faecalis ATCC 29212; format: cell-based, Enterococcus faecalis; conditions: ATCC 29212, 18 h
Procedure: as §1

[7] = test system: P. aeruginosa PA259-96196; experiment: microbe, parasite or virus in culture; format: cell-based, Pseudomonas aeruginosa; conditions: PA259-96196, 18 h
Summary of the method: (§2)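 Minimum inhibitory concentration came from a CLSI broth dilution assay: 18 h at 37 °C, inoculum 5 × 10^5 CFU/mL final.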

[8] = test system: P. aeruginosa PA262-101856; experiment: microbe, parasite or virus in culture; format: cell-based, Pseudomonas aeruginosa; conditions: PA262-101856, 18 h
Summary of the method: as §2

[9] = test system: A. baumannii AB027; experiment: microbe, parasite or virus in culture; format: cell-based, Acinetobacter baumannii; conditions: AB027, 18 h
Summary of the method: as §2

[10] = test system: A. baumannii AB92247; experiment: microbe, parasite or virus in culture; format: cell-based, Acinetobacter baumannii; conditions: AB92247, 18 h
Summary of the method: as §2

[11] = test system: E. coli 94393; experiment: microbe, parasite or virus in culture; format: cell-based, Escherichia coli; conditions: 94393, 18 h
Summary of the method: as §2

[12] = test system: E. coli 94474; experiment: microbe, parasite or virus in culture; format: cell-based, Escherichia coli; conditions: 94474, 18 h
Summary of the method: as §2

[13] = test system: MRSE 61589; format: cell-based, Staphylococcus epidermidis; conditions: 61589, 18 h
Procedure: as §1

[14] = test system: MSSE 81388; format: cell-based, Staphylococcus epidermidis; conditions: 18 h
Procedure: as §1

[15] = test system: P. aeruginosa PA259-96196; format: cell-based, Pseudomonas aeruginosa; conditions: for MICUTBLP: UTBLP alone
Procedure: (§3) The synergy of the UTBLPs with various antibiotics was assessed using checkerboard assay as previously described. Briefly, the combination of antibiotic and OMP at varying concentrations were incubated with bacterial inoculum (5 × 10^5 CFU/mL final concentration) at 37 °C for 18 h. Growth in the form of turbidity was confirmed using an EMax Plus microplate reader (Molecular Devices, Union City, CA, USA) at 590 nm. Fractional inhibitory concentration index (FICI) was used to evaluate the interaction between the antibiotic and the OMP. FICI is the sum of the FIC of the antibiotic and the FIC of the OMP. The FIC value is calculated by dividing the MIC of the agents in combination by the MIC of the agent alone. FICI ≤ 0.5 is synergistic, 0.5 < x ≤ 4 is additive, and >4 is antagonistic.

[16] = test system: P. aeruginosa PA262-101856; format: cell-based, Pseudomonas aeruginosa; conditions: for MICUTBLP: UTBLP alone
Procedure: as §3

[17] = test system: P. aeruginosa PAO1; format: cell-based, Pseudomonas aeruginosa; conditions: for MICUTBLP: UTBLP alone
Procedure: as §3

[18] = test system: E. coli 94474; format: cell-based, Escherichia coli; conditions: for MICUTBLP: UTBLP alone
Procedure: as §3

[19] = test system: E. cloacae 118564; format: cell-based, Enterobacter cloacae; conditions: for MICUTBLP: UTBLP alone
Procedure: as §3

[20] = test system: MRSE 61589; format: cell-based, Staphylococcus epidermidis
Procedure: as §3

[21] = test system: MSSE 81388; format: cell-based, Staphylococcus epidermidis
Procedure: as §3

[22] = test system: E. faecalis ATCC 29212; format: cell-based, Enterococcus faecalis
Procedure: as §3

[23] = UTBLP in combination with novobiocin
[24] = UTBLP in combination with rifampicin
[25] = novobiocin in combination with the UTBLP
[26] = rifampicin in combination with the UTBLP
[27] = UTBLP in combination with chloramphenicol
[28] = chloramphenicol in combination with the UTBLP
[29] = UTBLP alone, plate with chloramphenicol

MIC [1]: >128 µg/mL
MIC [2]: 64 µg/mL (≈ 66.2 µM)
MIC [3]: 32 µg/mL (≈ 33.1 µM)
MIC [4]: >128 µg/mL
MIC [5]: 128 µg/mL (≈ 132 µM)
MIC [6]: 32 µg/mL (≈ 33.1 µM)
MIC [7]: > 128 µg/mL
MIC [8]: > 128 µg/mL
MIC [9]: > 128 µg/mL
MIC [10]: 32 µg/mL (≈ 33.1 µM)
MIC [11]: 64 µg/mL (≈ 66.2 µM)
MIC [12]: > 128 µg/mL
MIC [13]: 16 µg/mL (≈ 16.6 µM)
MIC [14]: 16 µg/mL (≈ 16.6 µM)
MICUTBLP ([15]; plate with novobiocin): > 128 µg/mL
MICUTBLP ([15]; plate with rifampicin): > 128 µg/mL
MICUTBLP [MICcombo] [15, 23]: 16 µg/mL
MICUTBLP [MICcombo] [15, 24]: 16 µg/mL
MICantibiotic [MICcombo] [15, 25]: 128 µg/mL
MICantibiotic [MICcombo] [15, 26]: 2 µg/mL
MICUTBLP ([16]; plate with novobiocin): > 128 µg/mL
MICUTBLP ([16]; plate with rifampicin): > 128 µg/mL
MICUTBLP [MICcombo] [16, 23]: 16 µg/mL
MICUTBLP [MICcombo] [16, 24]: 16 µg/mL
MICantibiotic [MICcombo] [16, 25]: 128 µg/mL
MICantibiotic [MICcombo] [16, 26]: 256 µg/mL
MICUTBLP ([17]; plate with chloramphenicol): > 128 µg/mL
MICUTBLP ([17]; plate with niclosamide): > 128 µg/mL
MICUTBLP ([17]; plate with novobiocin): > 128 µg/mL
MICUTBLP ([17]; plate with rifampicin): > 128 µg/mL
MICUTBLP [MICcombo] [17, 27]: 16 µg/mL
MICUTBLP [MICcombo] ([17]; UTBLP in combination with niclosamide): 16 µg/mL
MICUTBLP [MICcombo] [17, 23]: 16 µg/mL
MICUTBLP [MICcombo] [17, 24]: 16 µg/mL
MICantibiotic [MICcombo] [17, 28]: 2 µg/mL
MICantibiotic [MICcombo] ([17]; niclosamide in combination with the UTBLP): 2 µg/mL
MICantibiotic [MICcombo] [17, 25]: 32 µg/mL
MICantibiotic [MICcombo] [17, 26]: 1 µg/mL
MICUTBLP ([18]; plate with novobiocin): > 128 µg/mL
MICUTBLP ([18]; plate with rifampicin): > 128 µg/mL
MICUTBLP [MICcombo] [18, 23]: 16 µg/mL
MICUTBLP [MICcombo] [18, 24]: 16 µg/mL
MICantibiotic [MICcombo] [18, 25]: 1 µg/mL
MICantibiotic [MICcombo] [18, 26]: 0.125 µg/mL
MICUTBLP ([19]; plate with novobiocin): > 128 µg/mL
MICUTBLP ([19]; plate with rifampicin): > 128 µg/mL
MICUTBLP [MICcombo] [19, 23]: 16 µg/mL
MICUTBLP [MICcombo] [19, 24]: 16 µg/mL
MICantibiotic [MICcombo] [19, 25]: 1 µg/mL
MICantibiotic [MICcombo] [19, 26]: 0.5 µg/mL
MICUTBLP [20, 29]: 16 µg/mL
MICUTBLP [MICcombo] [20, 27]: 8 µg/mL
MICchloramphenicol [MICcombo] [20, 28]: 4 µg/mL
MICUTBLP [21, 29]: 16 µg/mL
MICUTBLP [MICcombo] [21, 27]: 0.25 µg/mL
MICchloramphenicol [MICcombo] [21, 28]: 4 µg/mL
MICUTBLP [22, 29]: 32 µg/mL
MICUTBLP [MICcombo] [22, 27]: 4 µg/mL
MICchloramphenicol [MICcombo] [22, 28]: 4 µg/mL
Compound: CCCCCCCC(=O)NCCCC[C@H](NC(=O)CCCCCCC)C(=O)N[C@@H](CCCCNC)C(=O)N[C@@H](CCCCNC)C(=O)N[C@@H](CCCCNC)C(=O)N[C@@H](CCCCNC)C(N)=O [UTBLP 6] (Octanoyl-K(Octanoyl)[Lys(Me)][Lys(Me)][Lys(Me)][Lys(Me)]-NH2)
Interpretation ([15]; UTBLP + novobiocin): Synergy (FICI ≤ 0.5 is synergistic)
Interpretation ([15]; UTBLP + rifampicin): Synergy (FICI ≤ 0.5 is synergistic)
Interpretation ([16]; UTBLP + novobiocin): Synergy (FICI ≤ 0.5 is synergistic)
Interpretation ([16]; UTBLP + rifampicin): Additive (0.5 < x ≤ 4 is additive)
Interpretation ([17]; UTBLP + chloramphenicol): Synergy (FICI ≤ 0.5 is synergistic)
Interpretation ([17]; UTBLP + niclosamide): Synergy (FICI ≤ 0.5 is synergistic)
Interpretation ([17]; UTBLP + novobiocin): Synergy (FICI ≤ 0.5 is synergistic)
Interpretation ([17]; UTBLP + rifampicin): Synergy (FICI ≤ 0.5 is synergistic)
Interpretation ([18]; UTBLP + novobiocin): Synergy (FICI ≤ 0.5 is synergistic)
Interpretation ([18]; UTBLP + rifampicin): Synergy (FICI ≤ 0.5 is synergistic)
Interpretation ([19]; UTBLP + novobiocin): Synergy (FICI ≤ 0.5 is synergistic)
Interpretation ([19]; UTBLP + rifampicin): Synergy (FICI ≤ 0.5 is synergistic)
Interpretation ([20]; UTBLP + chloramphenicol): Additive (0.5 < x ≤ 4 is additive)
Interpretation ([21]; UTBLP + chloramphenicol): Additive (0.5 < x ≤ 4 is additive)
Interpretation ([22]; UTBLP + chloramphenicol): Additive (0.5 < x ≤ 4 is additive)
